Legend:
soybean = test: Test B pre/postemergence soybean; type: in vivo, Glycine max
Summary of the method: (§1)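 Test chemicals in a non-phytotoxic solvent mixture with surfactant were sprayed preemergence onto planted seeds and postemergence onto plants 2 to 18 cm tall (1- to 4-leaf stage). After twelve to sixteen days in a greenhouse, injury was visually rated against untreated controls from 0 (no effect) to 10 (complete control).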

wild oat = test: Test B pre/postemergence wild oat; type: in vivo, Avena fatua
Summary of the method: as §1

morningglory = test: Test B pre/postemergence morningglory; type: in vivo, Ipomoea hederacea
Summary of the method: as §1

giant foxtail = test: Test B pre/postemergence giant foxtail; type: in vivo, Setaria faberii
Summary of the method: as §1

rice = test: Test B flood test rice; type: in vivo, Oryza sativa
Summary of the method: (§2)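 Plants were grown to the 2-leaf stage before treatment with test chemical, then held in a greenhouse for twelve to sixteen days. Injury was visually rated against untreated controls on a 0–10 scale, where 0 is no effect and 10 is complete control.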

duck salad = test: Test B flood test duck salad; type: in vivo, Heteranthera limosa
Summary of the method: as §2

smallflower flatsedge = test: Test B flood test smallflower flatsedge; type: in vivo, Cyperus difformis
Summary of the method: as §2

wheat = test: Test B pre/postemergence wheat; type: in vivo, Triticum aestivum
Summary of the method: as §1

velvetleaf = test: Test B pre/postemergence velvetleaf; type: in vivo, Abutilon theophrasti
Summary of the method: as §1

pigweed = test: Test B pre/postemergence pigweed; type: in vivo, Amaranthus retroflexus
Summary of the method: as §1

surinam grass = test: Test B pre/postemergence surinam grass; type: in vivo, Brachiaria decumbens
Summary of the method: as §1

purple nutsedge = test: Test B pre/postemergence purple nutsedge; type: in vivo, Cyperus rotundus
Summary of the method: as §1

corn = test: Test B pre/postemergence corn; type: in vivo, Zea mays
Summary of the method: as §1

blackgrass = test: Test B pre/postemergence blackgrass; type: in vivo, Alopecurus myosuroides
Summary of the method: as §1

crabgrass = test: Test B pre/postemergence crabgrass; type: in vivo, Digitaria sanguinalis
Summary of the method: as §1

bedstraw = test: Test B pre/postemergence bedstraw; type: in vivo, Galium aparine
Summary of the method: as §1

[1] = Postemergence, Rate 62 g/ha, scale 0 to 10, 0 is no effect, 10 is complete control
[2] = Postemergence, Rate 125 g/ha, scale of 0 to 10 where 0 is no effect and 10 is complete control
[3] = Postemergence, Rate 250 g/ha, scale of 0 to 10, 0 is no effect, 10 is complete control
[4] = Preemergence, Rate 62 g/ha, scale 0 to 10 (0 no effect, 10 complete control)
[5] = Preemergence, Rate 125 g/ha, scale of 0 to 10 where 0 is no effect and 10 is complete control
[6] = Preemergence, Rate 250 g/ha, scale 0 to 10 (0 no effect, 10 complete control)
[7] = Preemergence, Rate 500 g/ha, scale of 0 to 10 where 0 is no effect and 10 is complete control
[8] = Rate 62 g/ha, flood test species, Pre-emergence, visual evaluation after twelve to sixteen days
[9] = Rate 125 g/ha, under heading Pre-emergence, flood test species, visual evaluation after twelve to sixteen days
[10] = Rate 250 g/ha, Pre-emergence (flood test species), scale 0 to 10, 0 is no effect, 10 is complete control
[11] = Rate 500 g/ha, Pre-emergence section of Table B, 0 to 10 scale (0 no effect, 10 complete control)
[12] = Postemergence, Rate 500 g/ha, scale of 0 to 10 where 0 is no effect and 10 is complete control

SMILES: CC(C)N(C(=O)n1oc(=O)n(CNC(=O)c2ccccc2)c1=O)c1ccccc1 [Compound 620]
- Plant response rating, Soybean (soybean; [1]): 1
- Plant response rating, Soybean (soybean; [2]): 1
- Soybean plant response rating (soybean; [3]): 1
- Soybean plant response rating (soybean; [4]): 0
- Soybean plant response rating (soybean; [5]): 0
- Plant response rating, Soybean (soybean; [6]): 0
- Plant response rating, Soybean (soybean; [7]): 0
- Plant response rating, Wild oats (wild oat; [1]): 0
- Plant response rating, Wild oats (wild oat; [2]): 0
- Wild oats plant response rating (wild oat; [3]): 0
- Wild oats plant response rating (wild oat; [4]): 0
- Wild oats plant response rating (wild oat; [5]): 0
- Plant response rating, Wild oats (wild oat; [6]): 0
- Plant response rating, Wild oats (wild oat; [7]): 0
- Plant response rating, Morningglory (morningglory; [1]): 2
- Morningglory plant response rating (morningglory; [3]): 2
- Morningglory plant response rating (morningglory; [4]): 0
- Morningglory plant response rating (morningglory; [5]): 0
- Plant response rating, Morningglory (morningglory; [6]): 0
- Plant response rating, Morningglory (morningglory; [7]): 0
- Plant response rating, Giant foxtail (giant foxtail; [1]): 0
- Plant response rating, Giant foxtail (giant foxtail; [2]): 0
- Giant foxtail plant response rating (giant foxtail; [3]): 0
- Giant foxtail plant response rating (giant foxtail; [4]): 0
- Giant foxtail plant response rating (giant foxtail; [5]): 0
- Plant response rating, Giant foxtail (giant foxtail; [6]): 2
- Plant response rating, Giant foxtail (giant foxtail; [7]): 9
- Plant response rating, Rice (0 to 10 scale, 0 is no effect, 10 is complete control) (rice; [8]): 0
- Rice plant response rating (0 to 10 scale, 0 is no effect, 10 is complete control) (rice; [9]): 0
- Rice plant response rating (rice; [10]): 0
- Rice plant response rating (rice; [11]): 0
- Plant response rating, Ducksalad (0 to 10 scale, 0 is no effect, 10 is complete control) (duck salad; [8]): 0
- Ducksalad plant response rating (0 to 10 scale, 0 is no effect, 10 is complete control) (duck salad; [9]): 0
- Ducksalad plant response rating (duck salad; [10]): 0
- Ducksalad plant response rating (duck salad; [11]): 0
- Plant response rating, S. Flatsedge (0 to 10 scale, 0 is no effect, 10 is complete control) (smallflower flatsedge; [8]): 0
- S. Flatsedge plant response rating (0 to 10 scale, 0 is no effect, 10 is complete control) (smallflower flatsedge; [9]): 0
- S. Flatsedge plant response rating (smallflower flatsedge; [10]): 0
- S. Flatsedge plant response rating (smallflower flatsedge; [11]): 0
- Plant response rating, Wheat (wheat; [1]): 0
- Plant response rating, Wheat (wheat; [2]): 0
- Wheat plant response rating (wheat; [3]): 0
- Wheat plant response rating (wheat; [4]): 0
- Wheat plant response rating (wheat; [5]): 0
- Plant response rating, Wheat (wheat; [6]): 0
- Plant response rating, Wheat (wheat; [7]): 0
- Plant response rating, Velvetleaf (velvetleaf; [1]): 0
- Plant response rating, Velvetleaf (velvetleaf; [2]): 0
- Velvetleaf plant response rating (velvetleaf; [3]): 0
- Velvetleaf plant response rating (velvetleaf; [4]): 0
- Velvetleaf plant response rating (velvetleaf; [5]): 0
- Plant response rating, Velvetleaf (velvetleaf; [6]): 0
- Plant response rating, Velvetleaf (velvetleaf; [7]): 0
- Plant response rating, Redroot pigweed (pigweed; [1]): 0
- Plant response rating, Redroot pigweed (pigweed; [2]): 0
- Redroot pigweed plant response rating (pigweed; [3]): 0
- Redroot pigweed plant response rating (pigweed; [4]): 0
- Redroot pigweed plant response rating (pigweed; [5]): 0
- Plant response rating, Redroot pigweed (pigweed; [6]): 0
- Plant response rating, Redroot pigweed (pigweed; [7]): 0
- Plant response rating, B. signalgrass (surinam grass; [1]): 0
- Plant response rating, B. signalgrass (surinam grass; [2]): 0
- B. signalgrass plant response rating (surinam grass; [3]): 0
- Plant response rating, B. signalgrass (surinam grass; [12]): 0
- B. signalgrass plant response rating (surinam grass; [4]): 0
- B. signalgrass plant response rating (surinam grass; [5]): 0
- Plant response rating, B. signalgrass (surinam grass; [6]): 0
- B. signalgrass plant response rating (surinam grass; [7]): 0
- Plant response rating, Nutsedge (purple nutsedge; [1]): 0
- Plant response rating, Nutsedge (purple nutsedge; [2]): 0
- Nutsedge plant response rating (purple nutsedge; [3]): 0
- Plant response rating, Nutsedge (purple nutsedge; [12]): 0
- Nutsedge plant response rating (purple nutsedge; [4]): 0
- Nutsedge plant response rating (purple nutsedge; [5]): 0
- Plant response rating, Nutsedge (purple nutsedge; [6]): 0
- Plant response rating, Nutsedge (purple nutsedge; [7]): 0
- Plant response rating, Corn (corn; [1]): 0
- Plant response rating, Corn (corn; [2]): 0
- Corn plant response rating (corn; [3]): 0
- Plant response rating, Corn (corn; [12]): 0
- Corn plant response rating (corn; [4]): 0
- Corn plant response rating (corn; [5]): 0
- Plant response rating, Corn (corn; [6]): 0
- Plant response rating, Corn (corn; [7]): 0
- Plant response rating, Blackgrass (blackgrass; [1]): 0
- Plant response rating, Blackgrass (blackgrass; [2]): 0
- Blackgrass plant response rating (blackgrass; [3]): 0
- Plant response rating, Blackgrass (blackgrass; [12]): 0
- Blackgrass plant response rating (blackgrass; [4]): 0
- Blackgrass plant response rating (blackgrass; [5]): 0
- Plant response rating, Blackgrass (blackgrass; [6]): 0
- Blackgrass plant response rating (blackgrass; [7]): 0
- Plant response rating, Crabgrass (crabgrass; [1]): 1
- Plant response rating, Crabgrass (crabgrass; [2]): 2
- Plant response rating, Crabgrass (crabgrass; [12]): 3
- Crabgrass plant response rating (crabgrass; [4]): 0
- Crabgrass plant response rating (crabgrass; [5]): 0
- Plant response rating, Crabgrass (crabgrass; [6]): 0
- Plant response rating, Crabgrass (crabgrass; [7]): 6
- Plant response rating, Bedstraw (bedstraw; [1]): 0
- Bedstraw plant response rating (bedstraw; [4]): 0
- Bedstraw plant response rating (bedstraw; [5]): 0
- Plant response rating, Bedstraw (bedstraw; [6]): 0
- Bedstraw plant response rating (bedstraw; [7]): 0
